# Assay results: patent US4491631A, “Assay method for lipid component, assay composition, and process for production of enzyme used therefor” (Toyo Jozo Kabushiki Kaisha, priority 1981, dated 1985)
# Biological target: T1, 3-hydroxyacyl-CoA dehydrogenase activity of multi-active enzyme (Pseudomonas fragi, UniProt P28793)
# T1 construct: Crude enzyme was prepared from microbial cells of Pseudomonas fragi B-0771; endogenous in cells; host or cells: Pseudomonas fragi B-0771 FERM-P No. 5701 (enzyme extracted with lysozyme and purified from its own cells, not recombinant)
# Assay: Effect of metal ions on 3-hydroxyacyl-CoA dehydrogenase activity
# Format: biochemical, Pseudomonas fragi B-0771
# Conditions: 1 mM metal ion; control 100; 10 min
# Description: (§1) The enzyme solution (50 μl) was added to the above reaction mixture, which was preincubated at 27° C. for 2 minutes, and the mixture was incubated at 37° C. for 10 minutes. 0.5% sodium dodecyl sulfate (2.0 ml) was added to stop the reaction and the absorbency was measured at 550 nm (ΔA550) One unit (1 U) is defined as the amount of enzyme which generates 1 μmole of reduced NAD in one minute. Enzyme activity is defined by the following equation: [formula] (c) Assay method of 3-ketoacyl-CoA thiolase activity:
# (9) Effect of metal ions:
# The effect of metal ions was measured on 3-hydroxyacyl-CoA dehydrogenase activity.
# T1 sequence (P28793 whole entry): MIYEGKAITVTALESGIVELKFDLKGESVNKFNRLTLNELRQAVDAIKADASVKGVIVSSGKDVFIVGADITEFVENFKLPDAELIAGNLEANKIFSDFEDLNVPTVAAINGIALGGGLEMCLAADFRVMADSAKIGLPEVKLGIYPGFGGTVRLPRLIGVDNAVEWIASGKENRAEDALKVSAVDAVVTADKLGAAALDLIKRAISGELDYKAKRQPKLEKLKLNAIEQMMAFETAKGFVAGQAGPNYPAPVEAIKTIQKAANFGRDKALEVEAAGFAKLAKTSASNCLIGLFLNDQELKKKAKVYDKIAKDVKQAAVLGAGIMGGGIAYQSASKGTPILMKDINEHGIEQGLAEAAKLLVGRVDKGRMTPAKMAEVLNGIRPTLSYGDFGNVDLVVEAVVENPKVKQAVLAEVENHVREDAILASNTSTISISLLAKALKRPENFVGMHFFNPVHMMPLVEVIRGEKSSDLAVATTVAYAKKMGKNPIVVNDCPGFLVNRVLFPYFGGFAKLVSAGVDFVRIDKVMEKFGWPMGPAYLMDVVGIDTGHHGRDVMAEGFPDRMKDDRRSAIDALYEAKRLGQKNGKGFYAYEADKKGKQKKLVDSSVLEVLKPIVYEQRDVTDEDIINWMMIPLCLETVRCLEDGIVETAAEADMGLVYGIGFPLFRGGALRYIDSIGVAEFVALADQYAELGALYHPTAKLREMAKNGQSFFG
# T1 sequence (P28790 whole entry partner): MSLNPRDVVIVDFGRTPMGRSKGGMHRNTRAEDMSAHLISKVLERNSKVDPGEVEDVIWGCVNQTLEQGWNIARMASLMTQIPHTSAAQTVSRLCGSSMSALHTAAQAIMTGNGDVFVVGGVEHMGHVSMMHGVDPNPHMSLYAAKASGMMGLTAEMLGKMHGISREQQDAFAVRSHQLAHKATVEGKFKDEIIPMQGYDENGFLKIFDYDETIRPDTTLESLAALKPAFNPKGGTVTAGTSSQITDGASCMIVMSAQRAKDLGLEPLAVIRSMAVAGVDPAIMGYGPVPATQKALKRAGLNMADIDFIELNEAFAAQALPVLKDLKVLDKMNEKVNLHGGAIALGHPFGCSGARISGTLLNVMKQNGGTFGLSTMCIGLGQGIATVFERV
row,Molecule,Relative activity
1,[Ba+2].[Cl-].[Cl-] [BaCl2],106%
2,[Ca+2].[Cl-].[Cl-] [CaCl 2],113%
3,[Cl-].[Cl-].[Co+2] [CoCl2],34%
4,[Cl][Cu][Cl] [CuCl2],12%
5,[Cl-].[Cl-].[Mg+2] [MgCl2],113%
6,[Cl][Mn][Cl] [MnCl2],32%
7,[Cl][Ni][Cl] [NiCl2],95%
8,[Cl-].[Cl-].[Zn+2] [ZnCl2],25%

# Biological target: T1, 3-hydroxyacyl-CoA dehydrogenase activity of multi-active enzyme
# Assay: Substrate specificity of 3-hydroxyacyl-CoA dehydrogenase activity
# Format: biochemical, Pseudomonas fragi B-0771
# Conditions: 3-hydroxyacyl-CoA used as substrate of 3-hydroxyacyl-CoA dehydrogenase activity
# Description: as §1
# 3-hydroxyacyl-CoA dehydrogenase activity was measured by using the following embodiments of 3-hydroxyacyl-CoA: […]
row,Relative activity,Molecule
1,9.5%,CCCCCCCCCCCCCCCCCC(O)CC(=O)SCCNC(=O)CCNC(=O)[C@H](O)C(C)(C)COP(=O)(O)OP(=O)(O)OC[C@H]1O[C@@H](n2cnc3c(N)ncnc32)[C@H](O)[C@@H]1OP(=O)(O)O (some centres unmarked) [3-hydroxyarachidoyl-CoA]
2,56.5%,CCCC(O)CC(=O)SCCNC(=O)CCNC(=O)[C@H](O)C(C)(C)COP(=O)(O)OP(=O)(O)OC[C@H]1O[C@@H](n2cnc3c(N)ncnc32)[C@H](O)[C@@H]1OP(=O)(O)O (some centres unmarked) [3-hydroxycaproyl-CoA]
3,99.0%,CCCCCCCC(O)CC(=O)SCCNC(=O)CCNC(=O)[C@H](O)C(C)(C)COP(=O)(O)OP(=O)(O)OC[C@H]1O[C@@H](n2cnc3c(N)ncnc32)[C@H](O)[C@@H]1OP(=O)(O)O (some centres unmarked) [3-hydroxycapryl-CoA]
4,88.1%,CCCCCC(O)CC(=O)SCCNC(=O)CCNC(=O)[C@H](O)C(C)(C)COP(=O)(O)OP(=O)(O)OC[C@H]1O[C@@H](n2cnc3c(N)ncnc32)[C@H](O)[C@@H]1OP(=O)(O)O (some centres unmarked) [3-hydroxycaprylyl-CoA]
5,100.0%,CCCCCCCCCC(O)CC(=O)SCCNC(=O)CCNC(=O)[C@H](O)C(C)(C)COP(=O)(O)OP(=O)(O)OC[C@H]1O[C@@H](n2cnc3c(N)ncnc32)[C@H](O)[C@@H]1OP(=O)(O)O (some centres unmarked) [3-hydroxylauryl-CoA]
6,99.0%,CC/C=C\C/C=C\C/C=C\CCCCCC(O)CC(=O)SCCNC(=O)CCNC(=O)[C@H](O)C(C)(C)COP(=O)(O)OP(=O)(O)OC[C@H]1O[C@@H](n2cnc3c(N)ncnc32)[C@H](O)[C@@H]1OP(=O)(O)O (some centres unmarked) [3-hydroxylinolenyl-CoA]
7,98.0%,CCCCCCCCCCCC(O)CC(=O)SCCNC(=O)CCNC(=O)[C@H](O)C(C)(C)COP(=O)(O)OP(=O)(O)OC[C@H]1O[C@@H](n2cnc3c(N)ncnc32)[C@H](O)[C@@H]1OP(=O)(O)O (some centres unmarked) [3-hydroxymyristoyl-CoA]
8,57.5%,CCCCCCCC/C=C\CCCCCC(O)CC(=O)SCCNC(=O)CCNC(=O)[C@H](O)C(C)(C)COP(=O)(O)OP(=O)(O)OC[C@H]1O[C@@H](n2cnc3c(N)ncnc32)[C@H](O)[C@@H]1OP(=O)(O)O (some centres unmarked) [3-hydroxyoleyl-CoA]
9,75.5%,CCCCCCCCCCCCCC(O)CC(=O)SCCNC(=O)CCNC(=O)[C@H](O)C(C)(C)COP(=O)(O)OP(=O)(O)OC[C@H]1O[C@@H](n2cnc3c(N)ncnc32)[C@H](O)[C@@H]1OP(=O)(O)O (some centres unmarked) [3-hydroxypalmitoyl-CoA]
10,30.5%,CCCCCCCCCCCCCCCC(O)CC(=O)SCCNC(=O)CCNC(=O)[C@H](O)C(C)(C)COP(=O)(O)OP(=O)(O)OC[C@H]1O[C@@H](n2cnc3c(N)ncnc32)[C@H](O)[C@@H]1OP(=O)(O)O (some centres unmarked) [3-hydroxystearyl-CoA]

# Biological target: T1, 3-hydroxyacyl-CoA dehydrogenase activity of multi-active enzyme
# Assay: Effect of surface active agents on 3-hydroxyacyl-CoA dehydrogenase activity
# Format: biochemical, Pseudomonas fragi B-0771
# Conditions: 0.1% surface active agent; control 100; 10 min
# Description: as §1
# (10) Effect of surface active agents:
# The effect of surface active agents was measured on 3-hydroxyacyl-CoA dehydrogenase activity.
row,Molecule,Relative activity
1,Triton X-100,96%
2,laurylbenzene sulfonate,0%

# Same assay, conditions: 10 min; 0.1% surface active agent; control 100; read-out: Relative activity
row,Molecule,activity at 0.1 %
1,CCCCCCCCCCCCCCCC[N+](C)(C)C [cetyltrimethylammonium chloride],0%
2,C[C@H](CCC(=O)O)[C@H]1CC[C@H]2[C@@H]3CC[C@@H]4C[C@H](O)CC[C@]4(C)[C@H]3C[C@H](O)[C@]12C [sodium deoxycholate],2%
3,CCCCCCCCCCCCOS(=O)(=O)[O-].[Na+] [sodium lauryl sulfate],0%
